Assay results from publication PMC10246841, “CCX559 is a potent, orally-administered small molecule PD-L1 inhibitor that induces anti-tumor immunity” (PLOS ONE, 2023).

Columns and labels:
PD-L1 = target: T1, PD-L1 (Homo sapiens, UniProt Q9NZQ7); assay: plate-based (ELISA-type) PD-1/PD-L1 binding inhibition assay with recombinant proteins; also CD80/PD-L1 inhibition and PathHunter PD-L1 dimerization in U2OS cells
T1 construct: gene CD274; with PD-1 (displaced in the assay); PD-L1 homodimer induced
T1 sequence (Q9NZQ7 19-290): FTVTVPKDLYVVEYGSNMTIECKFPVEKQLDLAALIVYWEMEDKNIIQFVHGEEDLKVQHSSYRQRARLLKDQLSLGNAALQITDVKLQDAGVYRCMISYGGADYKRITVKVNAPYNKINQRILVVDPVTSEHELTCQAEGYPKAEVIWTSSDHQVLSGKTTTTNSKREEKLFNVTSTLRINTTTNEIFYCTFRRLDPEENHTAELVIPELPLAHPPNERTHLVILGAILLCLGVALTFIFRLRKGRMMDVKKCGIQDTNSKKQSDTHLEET

cynomolgus PD-L1 = target: T2, cynomolgus PD-L1 (Macaca fascicularis, UniProt G7PSE7); assay: in vitro cynomolgus PD-L1/PD-1 interaction inhibition assay (S5 Fig); assay type: binding
T2 construct: with PD-1 (displaced in the assay)
T2 sequence (G7PSE7 19-238 limits assumed): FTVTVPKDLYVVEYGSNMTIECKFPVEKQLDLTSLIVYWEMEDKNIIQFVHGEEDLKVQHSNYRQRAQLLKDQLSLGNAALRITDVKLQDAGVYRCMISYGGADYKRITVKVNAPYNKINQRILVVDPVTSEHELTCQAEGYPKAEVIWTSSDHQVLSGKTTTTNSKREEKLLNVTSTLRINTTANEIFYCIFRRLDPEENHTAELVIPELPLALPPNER

CCX559
IC50 (PD-L1): 0.47 nM | IC50 (cynomolgus PD-L1): 0.21 nM
